As usually defined, the EC50 is the concentration needed to bring the measured effect to its halfway point.

This test has as its system ATF4 luciferase reporter in HEK293T cells. The test is described as follows: ATF4-Luc assay (ATF4 luciferase reporter, tunicamycin-treated HEK293T cells). In kind it is cell-based, human. The settings on record: Homo sapiens, HEK-293T; HEK293T cells carrying the ATF4 luciferase reporter, 1 μg/mL tunicamycin, 7 hours.
Take `O=C(COc1ccc(Cl)c(F)c1)NC12CC(NC(=O)CC(=O)c3ccc(Cl)cc3)(C1)C2` [Compound 293, N-{3-[2-(4-chloro-3-fluorophenoxy)acetamido]bicyclo[1.1.1]pentan-1-yl}-3-(4-chlorophenyl)-3-oxopropanamide]: the EC50 lay within 250 to 500 nM. With `O=C(/C=C/c1ccc(Cl)cc1)NC12CC(NC(=O)COc3ccc(Cl)c(F)c3)(C1)C2` [Compound 294, (2E)-N-{3-[2-(4-chloro-3-fluorophenoxy)acetamido]bicyclo[1.1.1]pentan-1-yl}-3-(4-chlorophenyl)prop-2-enamide], the EC50 was in the range of 10 to 50 nM.

Consider `Cc1ccc(OCC(=O)NC23CC(NC(=O)COc4ccc(Cl)c(Cl)c4)(C2)C3)cn1` [Compound 295, 2-(3,4-dichlorophenoxy)-N-(3-{2-[(6-methylpyridin-3-yl)oxy]acetamido}bicyclo[1.1.1]pentan-1-yl)acetamide], for which the EC50 is 50 to 250 nM.

Consider `O=C(COc1cc(C(F)(F)F)nc(C(F)(F)F)c1)NC12CC(NC(=O)COc3ccc(Cl)c(F)c3)(C1)C2` [Compound 296, 2-{[2,6-bis(trifluoromethyl)pyridin-4-yl]oxy}-N-{3-[2-(4-chloro-3-fluorophenoxy)acetamido]bicyclo[1.1.1]pentan-1-yl}acetamide], for which the EC50 is over 2000 nM.

As for `COC1CC2(NC(=O)COc3ccc(Cl)c(F)c3)CCC1(NC(=O)COc1ccc(Cl)c(F)c1)CC2` (stereo not drawn) [Compound 299, N,N′-(2-methoxybicyclo[2.2.2]octane-1,4-diyl)bis[2-(4-chloro-3-fluorophenoxy)acetamide]], the EC50 was 10 to 50 nM. In the case of `CN(C)C1CC2(NC(=O)COc3ccc(Cl)c(F)c3)CCC1(NC(=O)COc1ccc(Cl)c(F)c1)CC2` (stereo not drawn) [Compound 300, N,N′-[2-(dimethylamino)bicyclo[2.2.2]octane-1,4-diyl]bis[2-(4-chloro-3-fluorophenoxy)acetamide]], the EC50 lay within 10 to 50 nM. The result for `O=C(CNC(=O)OCc1ccccc1)NC12CC(NC(=O)COc3ccc(Cl)c(F)c3)(C1)C2` [Compound 304, benzyl [2-({3-[2-(4-chloro-3-fluorophenoxy)acetamido]bicyclo[1.1.1]pentan-1-yl}amino)-2-oxoethyl]carbamate] reads 500 to 2000 nM. With `O=C(COc1ccc(Cl)c(F)c1)NC12CCC(NC(=O)COc3ccc4c(c3)OC(F)(F)O4)(CC1)C(O)C2` (stereo not drawn) [Compound 305, 2-(4-chloro-3-fluorophenoxy)-N-(4-{2-[(2,2-difluoro-2H-1,3-benzodioxol-5-yl)oxy]acetamido}-3-hydroxybicyclo[2.2.2]octan-1-yl)acetamide], the EC50 was under 10 nM.

Turning to `O=C(COc1ccc(Cl)c(F)c1)NC12CCC(NC(=O)COc3cncc(C(F)(F)F)c3)(CC1)C(O)C2` (stereo not drawn) [Compound 306, 2-(4-chloro-3-fluorophenoxy)-N-[3-hydroxy-4-(2-{[5-(trifluoromethyl)pyridin-3-yl]oxy}acetamido)bicyclo[2.2.2]octan-1-yl]acetamide], the concentration for a half-maximal effect (EC50) was under 10 nM. With `O=C(COc1ccc(Cl)c(F)c1)NC12CC(NC(=O)[C@@H](O)c3ccc(Cl)cc3)(C1)C2` [Compound 307, (2S)—N-{3-[2-(4-chloro-3-fluorophenoxy)acetamido]bicyclo[1.1.1]pentan-1-yl}-2-(4-chlorophenyl)-2-hydroxyacetamide], the EC50 is over 2000 nM. Consider `O=C(COc1ccc(Cl)c(F)c1)NC12CCC(NC(=O)COc3ccnc(C(F)(F)F)c3)(CC1)C(O)C2` (stereo not drawn) [Compound 308, 2-(4-chloro-3-fluorophenoxy)-N-[3-hydroxy-4-(2-{[2-(trifluoromethyl)pyridin-4-yl]oxy}acetamido)bicyclo[2.2.2]octan-1-yl]acetamide], for which the EC50 was under 10 nM. Take `O=C(COc1ccc(Cl)c(F)c1)NC12CC(NC(=O)COc3ccnn(CC(F)(F)F)c3=O)(C1)C2` [Compound 309, 2-(4-chloro-3-fluorophenoxy)-N-[3-(2-{[3-oxo-2-(2,2,2-trifluoroethyl)-2,3-dihydropyridazin-4-yl]oxy}acetamido)bicyclo[1.1.1]pentan-1-yl]acetamide]: the EC50 was 50 to 250 nM. The result for `O=C(COc1ccc(Cl)c(F)c1)NC12CC(NC(=O)COc3cnn(CC(F)(F)F)c(=O)c3)(C1)C2` [Compound 310, 2-(4-chloro-3-fluorophenoxy)-N-[3-(2-{[6-oxo-1-(2,2,2-trifluoroethyl)-1,6-dihydropyridazin-4-yl]oxy}acetamido)bicyclo[1.1.1]pentan-1-yl]acetamide] reads 50 to 250 nM; that for `O=C(COc1ccc(Cl)c(F)c1)NC12CCC(NC(=O)COc3ccc(C4CC4)nc3)(CC1)C(O)C2` (stereo not drawn) [Compound 311, 2-(4-chloro-3-fluorophenoxy)-N-(4-{2-[(6-cyclopropylpyridin-3-yl)oxy]acetamido}-3-hydroxybicyclo[2.2.2]octan-1-yl)acetamide], under 10 nM.

As for `O=C(COc1ccc(Cl)c(F)c1)NC12CC(NC(=O)C(=O)Cc3ccc(Cl)cc3)(C1)C2` [Compound 312, N-{3-[2-(4-chloro-3-fluorophenoxy)acetamido]bicyclo[1.1.1]pentan-1-yl}-3-(4-chlorophenyl)-2-oxopropanamide], the EC50 fell in the range of 50 to 250 nM. Under `O=C(COc1ccc(C(F)(F)F)nc1)NC12CCC(NC(=O)COc3ccc(Cl)c(F)c3)(CC1)C(O)C2` (stereo not drawn) [Compound 313, 2-(4-chloro-3-fluorophenoxy)-N-[2-hydroxy-4-(2-{[6-(trifluoromethyl)pyridin-3-yl]oxy}acetamido)bicyclo[2.2.2]octan-1-yl]acetamide] stands under 10 nM.

Turning to `COc1ccc(CNC23CCC(NC(=O)COc4ccc(Cl)c(F)c4)(CC2)C(O)C3)cc1` (stereo not drawn) [Compound 314, 2-(4-chloro-3-fluorophenoxy)-N-(2-hydroxy-4-{[(4-methoxyphenyl)methyl]amino}bicyclo[2.2.2]octan-1-yl)acetamide], the EC50 is over 2000 nM. Regarding `O=C(COc1ccc(Cl)c(F)c1)NC12CC(NC(=O)[C@H](O)c3ccc(Cl)cc3)(C1)C2` [Compound 315, (2R)—N-{3-[2-(4-chloro-3-fluorophenoxy)acetamido]bicyclo[1.1.1]pentan-1-yl}-2-(4-chlorophenyl)-2-hydroxyacetamide], the half-maximal effective concentration (EC50) lay in the range of 500 to 2000 nM. The result for `O=C(COc1ccc(Cl)c(F)c1)NC12CCC(NC(=O)COc3ccnn(CC(F)(F)F)c3=O)(CC1)C(=O)C2` [Compound 316, 2-(4-chloro-3-fluorophenoxy)-N-[3-oxo-4-(2-{[3-oxo-2-(2,2,2-trifluoroethyl)-2,3-dihydropyridazin-4-yl]oxy}acetamido)bicyclo[2.2.2]octan-1-yl]acetamide] reads 500 to 2000 nM; that for `O=C(COc1ccc(Cl)c(F)c1)NC12CCC(NC(=O)COc3cnn(CC(F)(F)F)c(=O)c3)(CC1)C(=O)C2` [Compound 317, 2-(4-chloro-3-fluorophenoxy)-N-[3-oxo-4-(2-{[6-oxo-1-(2,2,2-trifluoroethyl)-1,6-dihydropyridazin-4-yl]oxy}acetamido)bicyclo[2.2.2]octan-1-yl]acetamide], over 2000 nM. As for `CN(C)c1ccc(CC(=O)NC23CCC(NC(=O)COc4ccc(Cl)c(F)c4)(CC2)CC3O)cc1` (stereo not drawn) [Compound 320, 2-(4-chloro-3-fluorophenoxy)-N-(4-{2-[4-(dimethylamino)phenyl]acetamido}-3-hydroxybicyclo[2.2.2]octan-1-yl)acetamide], the EC50 was 500 to 2000 nM.

The record behind these values is patent US20240166652A1, “MODULATORS OF THE INTEGRATED STRESS PATHWAY” (Calico Life Sciences LLC, priority 2017, published 2024).
